Results on nine compounds are retold here after patent publication US12661410B2, “Compounds for targeted degradation of RET” (C4 Therapeutics, Inc., priority 2020, dated 2026).

Positions count from the first letter of the chain named. Where two headings read alike, the source gives them in different places.

In one assay the target is T1, RET (658-1114) (Homo sapiens, UniProt P07949).
T1 construct: 658-1114; expressed in transfected cells; host or cells: 293T.144 (293T cells, generated in-house)
T1 sequence (P07949 658-1114): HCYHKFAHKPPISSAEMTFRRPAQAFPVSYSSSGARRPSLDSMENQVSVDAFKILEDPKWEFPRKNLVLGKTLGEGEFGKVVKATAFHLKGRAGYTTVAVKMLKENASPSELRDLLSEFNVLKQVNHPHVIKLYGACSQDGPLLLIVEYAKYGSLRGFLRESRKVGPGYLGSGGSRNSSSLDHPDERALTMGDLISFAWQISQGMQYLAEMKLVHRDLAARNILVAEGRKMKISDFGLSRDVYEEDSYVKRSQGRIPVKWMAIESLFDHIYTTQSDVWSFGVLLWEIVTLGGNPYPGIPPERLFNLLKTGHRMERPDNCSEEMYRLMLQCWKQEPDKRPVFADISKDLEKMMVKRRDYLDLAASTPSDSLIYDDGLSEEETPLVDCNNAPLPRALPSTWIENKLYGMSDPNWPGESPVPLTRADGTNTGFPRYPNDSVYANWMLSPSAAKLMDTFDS
In words: HiBiT-Degradation, RET wild-type degradation assay (Nano-Glo HiBiT Lytic), 293T.144 cells. The following applies: for Emax / DC50: 6.0 hours; for Emax: read-out: 293T.144 RET (658-1114) 6.0 hours (Emax); for DC50: read-out: 293T.144 RET (658-1114) 6.0 hours (DC50). The class given is cell-based. In a few lines: (§1)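 Degradation quantified by HiBiT lytic luminescence in 293T cells expressing tagged WT or G810R RET kinase domain after 6 h dosing up to 10 μM; DC50 and Emax fitted.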

The target of the next assay is T2, RET(KD: 658-1114 G810R) (Homo sapiens, UniProt P07949, G810R).
T2 construct: 658-1114; expressed in transfected cells; host or cells: 293T.165 (293T cells, generated in-house)
T2 sequence (P07949 658-1114 G810R): T1 sequence (P07949 658-1114) with G153R
Put plainly: HiBiT-Degradation, RET G810R degradation assay (Nano-Glo HiBiT Lytic), 293T.165 cells. Format: cell-based. The following applies: for Emax / DC50: 6.0 hours; for Emax: % remaining protein, read-out: 293T.165 RET(KD: 658-1114 G810R) 6.0 hours (Emax); for DC50: read-out: 293T.165 RET(KD: 658-1114 G810R) 6.0 hours (DC50). The essentials:
as §1
Background: The HiBiT peptide binds its large partner to form an active luciferase.

Setting [1] is: half-maximal degradation concentration.

One may read the Emax as the size of the effect at its maximum, as opposed to the concentration needed. Usually DC50 stands for the midpoint of the concentration-degradation curve. For `COc1cc(N2CCN([C@H]3CC[C@H](n4cc(-c5cn6ncc(C#N)c6c(-c6ccc(N7C[C@H]8COC[C@@H](C7)N8Cc7ccc(F)cc7)nc6)n5)cn4)CC3)CC2)c(F)cc1NC1CCC(=O)NC1=O` (relative stereo) [Compound 164, 6-[1-[4-[4-[4-[(2,6-dioxo-3-piperidyl)amino]-2-fluoro-5-methoxy-phenyl]piperazin-1-yl]cyclohexyl]pyrazol-4-yl]-4-[6-[(1R,5S)-9-[(4-fluorophenyl)methyl]-3-oxa-7,9-diazabicyclo[3.3.1]nonan-7-yl]-3-pyridyl]pyrazolo[1,5-a]pyrazine-3-carbonitrile], the “293T.144 RET (658-1114) 6.0 hours (IP) [nM]” value (from here on “293T.144 RET”) on RET (658-1114) is recorded as “++++ (<50 nM = ++++)”. Besides, the maximal effect (Emax) at RET (658-1114) (% remaining protein) and on RET(KD: 658-1114 G810R) was below 30% each time. Moreover, the DC50 at RET (658-1114) (setting [1]) was below 0.05 µM; on RET(KD: 658-1114 G810R) (setting [1]) it was below 0.1 µM. In addition, at RET(KD: 658-1114 G810R), the “293T.165 RET(KD: 658-1114 G810R) 6.0 hours (IP) [nM]” value was “+++ (<100 nM = +++)”.

In the case of `CCC1(C(=O)NC[C@H]2C[C@H](F)C2)CCN(c2ccc(-c3nc(-c4cnn([C@H]5CC[C@H](N6CCN(c7ccc(NC8CCC(=O)NC8=O)cc7F)CC6)CC5)c4)cn4ncc(C#N)c34)cn2)CC1` (stereo partly drawn) [Compound 207, 1-[5-[3-cyano-6-[1-[4-[4-[4-[(2,6-dioxo-3-piperidyl)amino]-2-fluoro-phenyl]piperazin-1-yl]cyclohexyl]pyrazol-4-yl]pyrazolo[1,5-a]pyrazin-4-yl]-2-pyridyl]-4-ethyl-N-[(3-fluorocyclobutyl)methyl]piperidine-4-carboxamide], the “293T.144 RET” value at RET (658-1114) was “++++ (<50 nM = ++++)”. The Emax at RET (658-1114) (% remaining protein) and on RET(KD: 658-1114 G810R) was below 30% each time. Moreover, the DC50 on RET (658-1114) (setting [1]) and at RET(KD: 658-1114 G810R) (setting [1]) was below 0.05 µM in each case. For the same compound, the “293T.165 RET(KD: 658-1114 G810R) 6.0 hours (IP) [nM]” value at RET(KD: 658-1114 G810R) was “++++ (<50 nM = ++++)”.

On to `CC1(NC(=O)Cc2ccccc2)CCN(c2ccc(-c3cc(-c4ccc(N5CCN(C(=O)CN6CCC(c7ccc(NC8CCC(=O)NC8=O)cc7F)CC6)CC5)cc4)cn4ncc(C#N)c34)cn2)CC1` (stereo not drawn) [Compound 23, N-(1-(5-(3-Cyano-6-(4-(4-(2-(4-(4-((2,6-dioxopiperidin-3-yl)amino)-2-fluorophenyl)piperidin-1-yl)acetyl)piperazin-1-yl)phenyl)pyrazolo[1,5-a]pyridin-4-yl)pyridin-2-yl)-4-methylpiperidin-4-yl)-2-phenylacetamide], for which, on RET (658-1114) (HiBiT-Degradation), the “293T.144 RET” value is “++++ (< 50 nM = ++++)”, the DC50 was below 0.05 µM and the Emax was below 30%. Further, the Emax at RET(KD: 658-1114 G810R) is below 30%. Further, on RET(KD: 658-1114 G810R) (setting [1]), the 50% degradation concentration (DC50) was below 0.1 µM. Moreover, on RET(KD: 658-1114 G810R) (HiBiT-Degradation), the “293T.165 RET(KD: 658-1114 G810R) 6.0 hours (Emax)” value is given as “++++ (< 30% = ++++)”, the “293T.165 RET(KD: 658-1114 G810R) 6.0 hours (IP) [nM]” value is “+++ (<100 nM = +++)” and the DC50 was below 0.1 µM.

For the compound `CCC1(C(=O)NC2CCC2)CCN(c2ccc(-c3nc(-c4cnn([C@H]5CC[C@H](N6CCC(c7ccc(N[C@H]8CCC(=O)NC8=O)cc7)CC6)CC5)c4)cn4ncc(C#N)c34)cn2)CC1` (single isomer, unassigned) [Compound 127], at RET (658-1114), the “293T.144 RET” value is recorded as “++++ (<50 nM = ++++)”. Besides, the Emax on RET (658-1114) (% remaining protein) and at RET(KD: 658-1114 G810R) was below 30% throughout. Further, the half-maximal degradation concentration (DC50) on RET (658-1114) (setting [1]) and at RET(KD: 658-1114 G810R) (setting [1]) was below 0.05 µM throughout. Besides, the “293T.165 RET(KD: 658-1114 G810R) 6.0 hours (IP) [nM]” value at RET(KD: 658-1114 G810R) is listed as “++++ (<50 nM = ++++)”.

Take `N#Cc1cnn2cc(-c3ccc(N4CCN(C(=O)CN5CCC(c6ccc(NC7CCC(=O)NC7=O)cc6F)CC5)CC4)cc3)nc(-c3ccc(N4CCN(C(=O)Cc5ccc(F)cn5)CC4)nc3)c12` (stereo not drawn) [Compound 52, 6-[4-[4-[2-[4-[4-[(2,6-dioxo-3-piperidyl)amino]-2-fluoro-phenyl]-1-piperidyl]acetyl]piperazin-1-yl]phenyl]-4-[6-[4-[2-(5-fluoro-2-pyridyl)acetyl]piperazin-1-yl]-3-pyridyl]pyrazolo[1,5-a]pyrazine-3-carbonitrile]: at RET (658-1114) (HiBiT-Degradation), the “293T.144 RET” value is recorded as “++++ (< 50 nM = ++++)”, the DC50 was below 0.05 µM and the Emax was below 30%. The Emax on RET(KD: 658-1114 G810R) was below 50%. In addition, the DC50 at RET(KD: 658-1114 G810R) (setting [1]) is below 0.1 µM. At RET(KD: 658-1114 G810R) (HiBiT-Degradation), the “293T.165 RET(KD: 658-1114 G810R) 6.0 hours (Emax)” value is recorded as “+++ (<50% = +++)”, the “293T.165 RET(KD: 658-1114 G810R) 6.0 hours (IP) [nM]” value is “++++ (< 50 nM = ++++)” and the DC50 was below 0.1 µM.

As to `N#Cc1cnn2cc(-c3cnn([C@H]4CC[C@H](N5CCN(c6ccc(NC7CCC(=O)NC7=O)cc6F)CC5)CC4)c3)nc(-c3ccc(N4CC5COCC(C4)N5Cc4ccccn4)nc3)c12` (single isomer, unassigned) [Compound 157, 6-(1-((1r, 4r)-4-(4-(4-((2,6-dioxopiperidin-3-yl)amino)-2-fluorophenyl)piperazin-1-yl)cyclohexyl)-1H-pyrazol-4-yl)-4-(6-(9-(pyridin-2-ylmethyl)-3-oxa-7,9-diazabicyclo[3.3.1]nonan-7-yl)pyridin-3-yl)pyrazolo[1,5-a]pyrazine-3-carbonitrile], on RET (658-1114), the “293T.144 RET” value is “++++ (<50 nM = ++++)”. The Emax on RET (658-1114) (% remaining protein) and at RET(KD: 658-1114 G810R) was below 30% in each case. The DC50 on RET (658-1114) (setting [1]) and at RET(KD: 658-1114 G810R) (setting [1]) was below 0.05 µM in each case. Also, the “293T.165 RET(KD: 658-1114 G810R) 6.0 hours (IP) [nM]” value on RET(KD: 658-1114 G810R) was “++++ (<50 nM = ++++)”.

Take `CC(C)NC(=O)C1(C)CCN(c2ccc(-c3cc(-c4ccc(N5CCN(C(=O)CN6CCC(c7ccc(NC8CCC(=O)NC8=O)cc7)CC6)CC5)cc4)cn4ncc(C#N)c34)cn2)CC1` (stereo not drawn) [Compound 35, 1-(5-(3-Cyano-6-(4-(4-(2-(4-(4-((2,6-dioxopiperidin-3-yl)amino)phenyl)piperidin-1-yl)acetyl)piperazin-1-yl)phenyl)pyrazolo[1,5-a]pyridin-4-yl)pyridin-2-yl)-N-isopropyl-4-methylpiperidine-4-carboxamide]: at RET (658-1114) (HiBiT-Degradation), the “293T.144 RET” value was “++++ (< 50 nM = ++++)”, the DC50 is below 0.05 µM and the Emax is below 30%. In addition, the Emax at RET(KD: 658-1114 G810R) is below 30%. Moreover, the DC50 at RET(KD: 658-1114 G810R) (setting [1]) was below 0.05 µM. Further, at RET(KD: 658-1114 G810R) (HiBiT-Degradation), the “293T.165 RET(KD: 658-1114 G810R) 6.0 hours (Emax)” value is “++++ (< 30% = ++++)”, the “293T.165 RET(KD: 658-1114 G810R) 6.0 hours (IP) [nM]” value is given as “++++ (< 50 nM = ++++)” and the DC50 was below 0.05 µM.

In the case of `CCC1(C(=O)NC(C)C)CCN(c2ccc(-c3nc(-c4cnn(C5CN(C(=O)CC6(O)CCN(c7ccc(NC8CCC(=O)NC8=O)cc7F)CC6)C5)c4)cn4ncc(C#N)c34)cn2)CC1` (stereo not drawn) [Compound 184, 1-[5-[3-cyano-6-[1-[1-[2-[1-[4-[(2,6-dioxo-3-piperidyl)amino]-2-fluoro-phenyl]-4-hydroxy-4-piperidyl]acetyl]azetidin-3-yl]pyrazol-4-yl]pyrazolo[1,5-a]pyrazin-4-yl]-2-pyridyl]-4-ethyl-N-isopropyl-piperidine-4-carboxamide], the “293T.144 RET” value on RET (658-1114) is reported as “++++ (<50 nM = ++++)”. Moreover, the maximal response (Emax) at RET (658-1114) (% remaining protein) and on RET(KD: 658-1114 G810R) was below 30% in each case. The DC50 at RET (658-1114) (setting [1]) and on RET(KD: 658-1114 G810R) (setting [1]) was below 0.05 µM throughout. For the same compound, at RET(KD: 658-1114 G810R), the “293T.165 RET(KD: 658-1114 G810R) 6.0 hours (IP) [nM]” value was “++++ (<50 nM = ++++)”.

For `N#Cc1cnn2cc(-c3cnn(C4CCN(C(=O)CC5(O)CCN(c6ccc(NC7CCC(=O)NC7=O)cc6F)CC5)CC4)c3)nc(-c3ccc(N4CCC(Oc5ccccn5)CC4)nc3)c12` (stereo not drawn) [Compound 109, 6-[1-[1-[2-[1-[4-[(2,6-dioxo-3-piperidyl)amino]-2-fluoro-phenyl]-4-hydroxy-4-piperidyl]acetyl]-4-piperidyl]pyrazol-4-yl]-4-[6-[4-(2-pyridyloxy)-1-piperidyl]-3-pyridyl]pyrazolo[1,5-a]pyrazine-3-carbonitrile], the “293T.144 RET” value at RET (658-1114) was “++++ (<50 nM = ++++)”. Besides, the Emax at RET (658-1114) (% remaining protein) and on RET(KD: 658-1114 G810R) was below 30% throughout. Besides, the half-maximal degradation concentration (DC50) at RET (658-1114) (setting [1]) and on RET(KD: 658-1114 G810R) (setting [1]) was below 0.05 µM each time. At RET(KD: 658-1114 G810R), the “293T.165 RET(KD: 658-1114 G810R) 6.0 hours (IP) [nM]” value was “++++ (<50 nM = ++++)”.
